Among the data in patent US6403830B2, “Amidino compound and salts thereof useful as nitric oxide synthase inhibitors” (Pharmacia Corporation, priority 2000, dated 2002) are IC50 values, retold here.

In experiment [1] the target is T1, human neuronal constitutive NOS (hncNOS) (Homo sapiens, UniProt P29475).
T1 construct: made in house; host or cells: Sf9 insect cells (baculovirus vector)
Description: Citrulline assay for nitric oxide synthase, hncNOS. The class given is biochemical. Particulars: recombinant enzyme, 30 μM L-arginine, calmodulin; averages across all experiments and all lots. The text has this: (§1) Nitric oxide synthase (NOS) activity can be measured by monitoring the conversion of L-[2,3-^3H]-arginine to L-[2,3-^3H]-citrulline (Bredt and Snyder, Proc. Natl. Acad. Sci. U.S.A., 87, 682-685, 1990 and Moore et al, J. Med. Chem. 39, 669-672, 1996). Human inducible NOS (hiNOS), human endothelial constitutive NOS (hecNOS) and human neuronal constitutive NOS (hncNOS) are each cloned from RNA extracted from human tissue. The cDNA for human inducible NOS (hiNOS) is isolated from a λcDNA library made from RNA extracted from a colon sample from a patient with ulcerative colitis. The cDNA for human endothelial constitutive NOS (hecNOS) is isolated from a λcDNA library made from RNA extracted from human umbilical vein endothelial cells (HUVEC) and the cDNA for human neuronal constitutive NOS (hncNOS) is isolated from a λcDNA library made from RNA extracted from human cerebellum obtained from a cadaver. The recombinant enzymes are expressed in Sf9 insect cells using a baculovirus vector (Rodi et al, in The Biology of Nitric Oxide, Pt. 4: Enzymology, Biochemistry and Immunology: Moncada, S., Feelisch, M., Busse, R., Higgs, E., Eds.; Portland Press Ltd.: London, 1995; pp 447-450). Enzyme activity is isolated from soluble cell extracts and partially purified by DEAE-Sepharose chromatography. To measure NOS activity, 10 μL of enzyme is added to 40 μL of 50 mM Tris (pH 7.6) in the presence or absence of test compounds and the reaction initiated by the addition of 50 μL of a reaction mixture containing 50 mM Tris (pH 7.6), 2.0 mg/mL bovine serum albumin, 2.0 mM DTT, 4.0 mM CaCl2, 20 μM FAD, 100 μM tetrahydrobiopterin, 0.4 mM NADPH and 60 μM L-arginine containing 0.9 μCi of L-[2,3-^3H]-arginine. The final concentration of L-arginine in the assay is 30 μM. For hecNOS or hncNOS, calmodulin is included at a final concentration of 40-100 nM. Following incubation at 37° C. for 15 minutes, the reaction is terminated by addition of 400 μL of a suspension (1 part resin, 3 parts buffer) of Dowex 5OW X-8 cation exchange resin in a stop buffer containing 10 mM EGTA, 100 mM HEPES, pH 5.5 and 1 mM L-citrulline. After mixing the resin is allowed to settle and L-[2,3-^3H]-Citrulline formation is determined by counting aliquots of the supernatant with a liquid scintillation counter. Results are reported in Table 1 as the IC50 values of compounds for hiNOS, hecNOS and hncNOS.

The target in experiment [2] is T2, Human inducible NOS (hiNOS) (Homo sapiens, UniProt P35228).
T2 construct: made in house; host or cells: Sf9 insect cells (baculovirus vector)
T2 sequence (P35228 whole entry): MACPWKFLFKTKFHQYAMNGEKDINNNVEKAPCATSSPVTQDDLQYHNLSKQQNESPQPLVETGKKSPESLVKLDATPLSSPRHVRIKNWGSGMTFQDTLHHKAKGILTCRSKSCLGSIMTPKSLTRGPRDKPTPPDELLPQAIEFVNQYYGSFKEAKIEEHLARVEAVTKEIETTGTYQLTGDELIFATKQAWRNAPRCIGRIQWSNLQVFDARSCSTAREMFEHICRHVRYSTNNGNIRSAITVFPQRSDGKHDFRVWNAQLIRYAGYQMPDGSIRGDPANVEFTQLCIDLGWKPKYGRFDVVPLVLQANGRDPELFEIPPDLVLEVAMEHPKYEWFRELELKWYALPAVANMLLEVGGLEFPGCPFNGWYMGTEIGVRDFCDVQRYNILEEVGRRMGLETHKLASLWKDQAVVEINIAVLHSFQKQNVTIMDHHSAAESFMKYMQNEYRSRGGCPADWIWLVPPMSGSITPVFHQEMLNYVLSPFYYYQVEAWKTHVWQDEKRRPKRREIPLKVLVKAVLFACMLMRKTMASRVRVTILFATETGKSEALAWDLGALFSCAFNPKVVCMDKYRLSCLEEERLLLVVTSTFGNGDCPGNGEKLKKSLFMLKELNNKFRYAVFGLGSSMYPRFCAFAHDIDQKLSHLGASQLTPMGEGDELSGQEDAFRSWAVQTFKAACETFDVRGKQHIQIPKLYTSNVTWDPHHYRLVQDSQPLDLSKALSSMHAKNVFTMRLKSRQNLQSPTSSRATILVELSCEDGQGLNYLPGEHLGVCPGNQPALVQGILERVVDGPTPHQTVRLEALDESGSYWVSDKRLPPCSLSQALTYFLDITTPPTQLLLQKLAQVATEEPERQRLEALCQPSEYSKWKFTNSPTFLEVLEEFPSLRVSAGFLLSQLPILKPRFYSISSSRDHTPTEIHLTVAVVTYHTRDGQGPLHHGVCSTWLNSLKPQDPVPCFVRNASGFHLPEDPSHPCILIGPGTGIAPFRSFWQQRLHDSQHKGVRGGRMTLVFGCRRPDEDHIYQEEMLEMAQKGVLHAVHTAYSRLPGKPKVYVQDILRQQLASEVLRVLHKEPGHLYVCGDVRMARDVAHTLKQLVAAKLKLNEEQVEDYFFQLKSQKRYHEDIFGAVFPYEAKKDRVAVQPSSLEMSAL
Description: Citrulline assay for nitric oxide synthase, hiNOS. The class given is biochemical. The note with it: recombinant enzyme, 30 μM L-arginine; averages across all experiments and all lots.
Description: as §1

Experiment [3] concerns the target T3, human endothelial constitutive NOS (hecNOS) (Homo sapiens, UniProt P29474).
T3 construct: made in house; host or cells: Sf9 insect cells (baculovirus vector)
The experiment in a line: Citrulline assay for nitric oxide synthase, hecNOS. Particulars: recombinant enzyme, 30 μM L-arginine, calmodulin; averages across all experiments and all lots. The class given is biochemical.
Description: as §1

In experiment [4] the test system is nitrite production in human cartilage explants induced with recombinant human IL-1β. Description: Human Cartilage Explant Assay. The class given is cell-based. The note with it: inhibition of nitrite production, IL-1β-stimulated explants, averages across all experiments and all lots.
Description: Bone pieces are rinsed twice with Dulbecco's Phosphate Buffered Saline (GibcoBRL) and once with Dulbecco's Modified Eagles Medium (GibcoBRL) and placed into a petri dish with phenol red free Minimum Essential Medium (MEM) (GibcoBRL). Cartilage was cut into small explants of approximately 15-45 mg in weight and one or two explants per well are placed into either 96 or 48 well culture plates with 200-500 μL of culture media per well. The culture media was either a custom modification of Minimum Essential Medium(Eagle) with Earle's salts (GibcoBRL) prepared without L-Arginine, without L-Glutamine and without phenol red or a custom modification of serumless Neuman and Tytell (GibcoBRL) medium prepared without L-arginine, without insulin, without ascorbic acid, without L-glutamine and without phenol red. Both are supplemented before use with 100 μM L-Arginine (Sigma), 2 mM L-glutamine, 1×HL-1 supplement (BioWhittaker), 50 mg/ml ascorbic acid (Sigma) and 150 pg/ml recombinant human IL-1β (RD Systems) to induce nitric oxide synthase. Compounds are then added in 10 μL aliquots and the explants incubated at 37° C. with 5% CO2 for 18-24 hours. […] This supernatant is analyzed for nitrite with a fluorometric assay (Misko et al, Anal. Biochem., 214, 11-16, 1993). […]

Structures are written as SMILES. pIC50: −log10 of the molar value. Counter-ions that a name gives are not always drawn.

T3 sequence (P29474 2-1203): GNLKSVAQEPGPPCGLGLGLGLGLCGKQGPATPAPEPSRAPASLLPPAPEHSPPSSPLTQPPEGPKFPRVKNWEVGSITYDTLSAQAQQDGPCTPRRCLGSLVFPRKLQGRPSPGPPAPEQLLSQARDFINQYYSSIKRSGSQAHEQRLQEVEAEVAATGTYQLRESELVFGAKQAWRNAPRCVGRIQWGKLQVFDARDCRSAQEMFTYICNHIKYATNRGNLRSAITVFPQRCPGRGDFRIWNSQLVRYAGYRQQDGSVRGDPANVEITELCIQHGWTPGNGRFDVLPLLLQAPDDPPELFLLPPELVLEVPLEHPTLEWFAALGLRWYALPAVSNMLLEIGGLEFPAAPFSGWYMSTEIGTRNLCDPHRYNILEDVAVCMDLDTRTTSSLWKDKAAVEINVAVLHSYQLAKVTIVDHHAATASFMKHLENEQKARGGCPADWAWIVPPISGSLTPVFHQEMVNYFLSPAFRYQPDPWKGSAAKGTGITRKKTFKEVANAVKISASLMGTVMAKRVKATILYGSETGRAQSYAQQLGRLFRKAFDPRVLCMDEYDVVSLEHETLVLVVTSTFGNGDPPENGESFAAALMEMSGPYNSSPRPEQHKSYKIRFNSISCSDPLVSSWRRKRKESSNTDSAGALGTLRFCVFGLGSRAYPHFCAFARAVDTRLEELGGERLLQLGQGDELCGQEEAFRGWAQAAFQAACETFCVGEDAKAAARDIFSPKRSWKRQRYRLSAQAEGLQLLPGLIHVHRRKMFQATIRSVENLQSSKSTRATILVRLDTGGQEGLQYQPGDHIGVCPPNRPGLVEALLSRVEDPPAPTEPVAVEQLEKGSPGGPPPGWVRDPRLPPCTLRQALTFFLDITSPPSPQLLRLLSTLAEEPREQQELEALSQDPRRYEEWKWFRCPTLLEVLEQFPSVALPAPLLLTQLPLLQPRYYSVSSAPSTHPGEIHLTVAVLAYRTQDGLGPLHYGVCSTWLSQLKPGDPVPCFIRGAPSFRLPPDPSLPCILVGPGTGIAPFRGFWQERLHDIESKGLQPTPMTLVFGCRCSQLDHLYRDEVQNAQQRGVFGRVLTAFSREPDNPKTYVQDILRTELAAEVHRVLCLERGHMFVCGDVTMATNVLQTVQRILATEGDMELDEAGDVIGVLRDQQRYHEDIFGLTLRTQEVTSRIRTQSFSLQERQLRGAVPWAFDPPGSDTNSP
T1 sequence (P29475 whole entry): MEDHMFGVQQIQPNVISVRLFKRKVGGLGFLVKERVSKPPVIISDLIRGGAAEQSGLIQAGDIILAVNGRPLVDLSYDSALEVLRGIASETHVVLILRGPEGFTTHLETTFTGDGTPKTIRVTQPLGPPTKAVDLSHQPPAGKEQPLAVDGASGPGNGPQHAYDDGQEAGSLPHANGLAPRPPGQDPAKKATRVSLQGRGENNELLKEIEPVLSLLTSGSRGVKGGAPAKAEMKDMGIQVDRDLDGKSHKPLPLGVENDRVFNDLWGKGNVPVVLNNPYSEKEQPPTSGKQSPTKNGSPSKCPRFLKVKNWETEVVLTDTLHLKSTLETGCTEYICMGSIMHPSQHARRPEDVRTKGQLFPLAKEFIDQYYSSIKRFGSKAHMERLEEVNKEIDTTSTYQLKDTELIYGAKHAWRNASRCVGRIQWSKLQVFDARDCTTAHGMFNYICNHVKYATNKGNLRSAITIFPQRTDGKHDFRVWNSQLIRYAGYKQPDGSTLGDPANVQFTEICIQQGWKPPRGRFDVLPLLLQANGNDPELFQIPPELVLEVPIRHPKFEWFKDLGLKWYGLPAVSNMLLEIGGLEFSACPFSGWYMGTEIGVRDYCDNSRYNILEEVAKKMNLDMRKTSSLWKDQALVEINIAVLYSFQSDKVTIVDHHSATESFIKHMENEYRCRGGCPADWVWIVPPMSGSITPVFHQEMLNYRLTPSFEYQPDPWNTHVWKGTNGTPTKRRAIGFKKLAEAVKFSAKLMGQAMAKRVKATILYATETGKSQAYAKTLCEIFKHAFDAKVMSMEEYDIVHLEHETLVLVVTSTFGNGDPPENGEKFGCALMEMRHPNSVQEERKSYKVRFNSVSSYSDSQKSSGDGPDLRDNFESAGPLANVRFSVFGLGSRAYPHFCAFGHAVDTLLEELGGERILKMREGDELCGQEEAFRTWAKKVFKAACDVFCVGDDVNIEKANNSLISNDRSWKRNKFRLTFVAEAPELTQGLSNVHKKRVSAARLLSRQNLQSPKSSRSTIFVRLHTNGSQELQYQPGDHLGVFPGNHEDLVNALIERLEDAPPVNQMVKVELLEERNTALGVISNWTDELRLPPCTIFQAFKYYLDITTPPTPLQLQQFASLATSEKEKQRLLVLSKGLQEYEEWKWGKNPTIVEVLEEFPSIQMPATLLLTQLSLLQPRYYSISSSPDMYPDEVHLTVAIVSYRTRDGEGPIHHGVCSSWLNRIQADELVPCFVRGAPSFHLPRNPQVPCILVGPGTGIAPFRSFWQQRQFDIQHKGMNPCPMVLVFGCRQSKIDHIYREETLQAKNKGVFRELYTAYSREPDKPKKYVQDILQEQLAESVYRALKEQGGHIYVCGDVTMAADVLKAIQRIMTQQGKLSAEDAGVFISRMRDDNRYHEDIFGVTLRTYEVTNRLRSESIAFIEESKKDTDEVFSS

In the case of `CC(=N)NCC[S+]([O-])C[C@](C)(N)C(=O)O` (mixture of isomers) [Example 18, (2R)-2-Amino-3[[2-[(1-iminoethyl)amino]ethyl]sulfmyl]-2-methylpropanoic acid, dihydrochloride], the pIC50 in experiment [1] is 3.74; in experiment [2], 4.92; in experiment [3], below 4.00.

For the compound `CC(=N)NCCSC[C@](C)(N)C(=O)O` [Example 1, S-[2-[(1-Iminoethyl)amino]ethyl]-2-methyl-L-cysteine, dihydrochloride], the pIC50 in experiment [4] was 6.15; in experiment [1] it was 4.82; in experiment [2], 5.51; in experiment [3] it was 4.11.

As to `COC[C@](N)(CSCCNC(C)=N)C(=O)O` [Example 2, 2-[[[2-[(1-Iminoethyl)amino]ethyl]thio]methyl]-O-methyl-D-serine, dihydrochloride], the figures for the pIC50 in experiment [1], in experiment [2] and in experiment [3] were 4.24, 5.36 and 3.52, respectively.

As to `CC(=N)NC[C@@H](C)SC[C@](C)(N)C(=O)O` [Example 3, S-[(1R)-2-[(1-Iminoethyl)amino]-1-methylethyl]-2-methyl-L-cysteine, dihydrochloride], the negative-log IC50 (pIC50) in experiment [1] is 4.07; in experiment [2], 4.13; in experiment [3], 3.58.

Turning to `CC(=N)NC[C@H](C)SC[C@](C)(N)C(=O)O` [Example 4, S-[(1S)-2-[(1-Iminoethyl)aminol-1-methylethyl]-2-methyl-L-cysteine, dihydrochloride], the values for the pIC50 in experiment [1], in experiment [2] and in experiment [3] were 3.27, 3.71 and 2.96, respectively.

On to `CC[C@](N)(CSCCNC(C)=N)C(=O)O` [Example 7, S-[2-[(1-Iminoethyl)amino]ethyl]-2-ethyl-L-cysteine, dihydrochloride], for which the pIC50 in experiment [1] is 4.77; in experiment [2], 5.47; in experiment [3], 4.11.

For `CC(=N)NCCSC[C@](N)(C(=O)O)C(C)C` [Example 11, 2-[[[[2-(1-Iminoethyl)amino]ethyl]thio]methyl]-D-valine, dihydrochloride], the pIC50 is 5.22 in experiment [1], 6.05 in experiment [2] and 4.59 in experiment [3].

Take `CC(=N)NCCSCC(C)(N)C(=O)O` (stereo not drawn) [Example 16, S-[2-(1-Iminoethylamino)ethyl]-2-methyl-(D/L)-cysteine, bistrifluoroacetate]: the pIC50 was 6.15 in experiment [4], 4.44 in experiment [1], 5.14 in experiment [2] and below 4.00 in experiment [3].

On to `CC(=N)NCCS(=O)(=O)C[C@](C)(N)C(=O)O` [Example 19, (2R)-2-Amino-3[[2-[(1-iminoethyl)amino]ethyl]sulfonyl]-2-methylpropanoic acid dihydrochloride], for which the pIC50 in experiment [1] was 3.66; in experiment [2] it was 4.92; in experiment [3], 2.97.

For orientation: pIC50 means the IC50 on a negative log10 scale, so that one unit is a factor of ten.
